Results from PubChem BioAssay AID248 (DTP/NCI, 2004).
Several values for one entry are separate records, joined by “and”; a condition that tells them apart may be missing. Identical values can stand only once. Inconclusive results and toxic doses are left out. No stated cut-off is given here; in the data, active means T/C of 150% or more; inactive means T/C below 125%.

System: L1210 leukemia ip in BDF1 mice, survival T/C
Test: NCI In Vivo Anticancer Drug Screen. Data for tumor model L1210 Leukemia (intraperitoneal) in B6D2F1 (BDF1) mice
Details: endpoint: mean survival time, higher = longer survival
Summary of the method: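 Transplanted-tumor mice were given test agent; controls received vehicle only. Survival readings from the two groups were divided (treated over control).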

[1] = dose: 100.0 mg/kg/injection, schedule: Q04DX003 (ip), vehicle: saline with Tween-80
[2] = dose: 200.0 mg/kg/injection, schedule: Q04DX003 (ip), vehicle: saline with Tween-80
[3] = dose: 50.0 mg/kg/injection, schedule: Q01DX001 (ip), vehicle: carboxymethylcellulose (CMC)
[4] = dose: 100.0 mg/kg/injection, schedule: Q01DX001 (ip), vehicle: carboxymethylcellulose (CMC)
[5] = dose: 200.0 mg/kg/injection, schedule: Q01DX001 (ip), vehicle: carboxymethylcellulose (CMC)
[6] = dose: 400.0 mg/kg/injection, schedule: Q01DX001 (ip), vehicle: carboxymethylcellulose (CMC)
[7] = dose: 100.0 mg/kg/injection, schedule: Q01DX001 (ip), vehicle: other
[8] = dose: 200.0 mg/kg/injection, schedule: Q01DX001 (ip), vehicle: other
[9] = dose: 100.0 mg/kg/injection, schedule: Q04DX003 (ip), vehicle: saline
[10] = dose: 200.0 mg/kg/injection, schedule: Q04DX003 (ip), vehicle: saline
[11] = dose: 400.0 mg/kg/injection, schedule: Q04DX003 (ip), vehicle: saline
[12] = dose: 100.0 mg/kg/injection, schedule: Q01DX001 (ip), vehicle: saline
[13] = dose: 200.0 mg/kg/injection, schedule: Q01DX001 (ip), vehicle: saline
[14] = dose: 400.0 mg/kg/injection, schedule: Q01DX001 (ip), vehicle: saline
[15] = dose: 100.0 mg/kg/injection, schedule: Q01DX009 (ip), vehicle: saline
[16] = dose: 200.0 mg/kg/injection, schedule: Q01DX009 (ip), vehicle: saline

Measured: T/C

Nc1ccc(/C=C2\C=Cc3ccccc32)cc1
inactive: dose: 8.5 mg/kg/injection, schedule: Q01DX009 (ip), vehicle: saline 98 % of control | dose: 17.0 mg/kg/injection, schedule: Q01DX001 (ip), vehicle: acetone 98 % of control | dose: 17.0 mg/kg/injection, schedule: Q01DX009 (ip), vehicle: saline 97 % of control | dose: 35.0 mg/kg/injection, schedule: Q01DX001 (ip), vehicle: acetone 105 % of control | dose: 35.0 mg/kg/injection, schedule: Q01DX009 (ip), vehicle: saline 101 % of control | dose: 100.0 mg/kg/injection, schedule: Q01DX001 (ip), vehicle: olive oil, sesame oil, peanut oil 94 % of control

CCN(CCNc1cc(C)nc(/N=C(\N)Nc2ccc(Cl)c(Cl)c2)n1)CC(C)(C)O
inactive: dose: 75.0 mg/kg/injection, schedule: Q01DX001 (ip), vehicle: other 93 % of control | dose: 150.0 mg/kg/injection, schedule: Q01DX001 (ip), vehicle: other 95 % of control | dose: 300.0 mg/kg/injection, schedule: Q01DX001 (ip), vehicle: other 104 % of control

CN1C2CCC1CC(OC(=O)c1ccccc1)C2 (centres undefined)
inactive: dose: 25.0 mg/kg/injection, schedule: Q04DX002 (ip), vehicle: saline with Tween-80 94 % of control | dose: 50.0 mg/kg/injection, schedule: Q04DX002 (ip), vehicle: saline with Tween-80 105 % of control | dose: 100.0 mg/kg/injection, schedule: Q04DX002 (ip), vehicle: saline with Tween-80 94 % of control

O=c1c2ccccc2sc2c1ccc1c2ccc2c(=O)c3ccccc3sc21
inactive: [1] 96 % of control | [2] 87 % of control

CCCCCCN(CCCCCC)CC(=O)Nc1ccc(S(=O)(=O)c2ccc(NC(=O)CN(CCCCCC)CCCCCC)cc2)cc1
inactive: dose: 25.0 mg/kg/injection, schedule: Q01DX001 (ip), vehicle: carboxymethylcellulose (CMC) 114 % of control | [3] 97 % of control

COc1ccc(Oc2cc(OC)ccc2Oc2ccccc2)cc1
inactive: [4] 97 % of control | [5] 105 % of control | [6] 110 % of control

COc1ccc(S(=O)(=O)/N=C(/C2CC3=CCC4C5CCC(=O)C5(C)CC(=O)C4C3(C)C2)N2CCCC2)cc1 (centres undefined)
inactive: [7] 103 % of control | [8] 108 % of control | dose: 400.0 mg/kg/injection, schedule: Q01DX001 (ip), vehicle: other 98 % of control

O=C1CCCCc2cc(O)c([N+](=O)[O-])cc21
inactive: dose: 50.0 mg/kg/injection, schedule: Q01DX009 (ip), vehicle: saline with Tween-80 101 % of control | dose: 100.0 mg/kg/injection, schedule: Q01DX009 (ip), vehicle: saline with Tween-80 95 % of control

CCCCCC(=O)NCC(=O)N1CCC(C(=O)NCCCCC(=O)OC)C1 (centres undefined)
inactive: [9] 97 % of control | [10] 94 % of control | [11] 86 % of control

CC1C[N+](C)(C)N=C1[O-] (centres undefined)
inactive: [12] 104 % of control | [13] 98 % of control | [14] 95 % of control

CC(=O)OCC1OC(SSc2ccccc2)C(OC(C)=O)C(OC(C)=O)C1OC(C)=O (centres undefined)
inactive: [12] 98 % of control | [13] 89 % of control | [14] 89 % of control

CC(=O)OC/C=C(\C)CCC1OC1(C)C (centres undefined)
inactive: [12] 120 % of control | dose: 100.0 mg/kg/injection, schedule: Q04DX003 (ip), vehicle: water 102 % of control | [13] 108 % of control | dose: 200.0 mg/kg/injection, schedule: Q04DX003 (ip), vehicle: water 112 % of control | [14] 114 % of control | dose: 400.0 mg/kg/injection, schedule: Q04DX003 (ip), vehicle: water 101 % of control

Cn1cc(Cc2ccccc2)c(=O)n(C)c1=O
inactive: [1] 100 % of control | [2] 100 % of control | dose: 400.0 mg/kg/injection, schedule: Q04DX003 (ip), vehicle: saline with Tween-80 106 % of control

O=C(Nc1cccc(Cl)c1Cl)OCCN1CCNC1=S
inactive: [15] 94 % of control | [16] 96 % of control | dose: 400.0 mg/kg/injection, schedule: Q01DX009 (ip), vehicle: saline 102 % of control

CCC/C=[CH]/[Hg][Cl]
inactive: dose: 6.25 mg/kg/injection, schedule: Q01DX009 (ip), vehicle: other 93 % of control | dose: 6.25 mg/kg/injection, schedule: Q04DX003 (ip), vehicle: saline sonified 95 % of control | dose: 12.5 mg/kg/injection, schedule: Q01DX009 (ip), vehicle: other 94 % of control | dose: 12.5 mg/kg/injection, schedule: Q04DX003 (ip), vehicle: saline sonified 95 % of control | dose: 25.0 mg/kg/injection, schedule: Q01DX009 (ip), vehicle: other 97 % of control | dose: 25.0 mg/kg/injection, schedule: Q04DX003 (ip), vehicle: saline sonified 106 % of control

O=C(Cc1ccccc1)Cc1ccccc1
inactive: dose: 25.0 mg/kg/injection, schedule: Q01DX009 (ip), vehicle: water 104 % of control | dose: 50.0 mg/kg/injection, schedule: Q01DX009 (ip), vehicle: water 115 % of control | dose: 100.0 mg/kg/injection, schedule: Q01DX009 (ip), vehicle: water 104 % of control | dose: 200.0 mg/kg/injection, schedule: Q01DX009 (ip), vehicle: water 94 % of control | dose: 400.0 mg/kg/injection, schedule: Q01DX009 (ip), vehicle: water 94 % of control

CCOC(=O)/C=C/C(=O)O
inactive: [3] 111 % of control | dose: 75.0 mg/kg/injection, schedule: Q01DX001 (ip), vehicle: carboxymethylcellulose (CMC) 86 % of control | [4] 105 % of control | [9] 95 % of control and 109 % of control | [5] 114 % of control | [10] 103 % of control and 109 % of control | [6] 101 % of control | [11] 95 % of control and 97 % of control

CN(Cc1ccccc1Cl)C(=O)Nc1ccccc1
inactive: dose: 100.0 mg/kg/injection, schedule: Q01DX009 (ip), vehicle: Klucel (hydroxypropylcellulose) (HPC) 101 % of control | dose: 200.0 mg/kg/injection, schedule: Q01DX009 (ip), vehicle: Klucel (hydroxypropylcellulose) (HPC) 106 % of control | dose: 400.0 mg/kg/injection, schedule: Q01DX009 (ip), vehicle: Klucel (hydroxypropylcellulose) (HPC) 101 % of control

CCc1cccc(CC)c1NC(=O)Nc1ccc(Br)cc1
inactive: dose: 50.0 mg/kg/injection, schedule: Q04DX003 (ip), vehicle: saline 87 % of control | [12] 86 % of control | [9] 87 % of control | [13] 89 % of control | [10] 92 % of control

CC(=O)Nc1cc(C)c(C=O)cc1C
inactive: [4] 88 % of control | [5] 108 % of control | [6] 92 % of control

O=C1C(=O)c2ccccc2C(O)=C1CCCCCCCCCC[S+](CCO)CCO
inactive: [7] 104 % of control | [8] 101 % of control

C[C@]12CC[C@@H]3c4ccc(OC(=O)Cc5ccc(N(CCCl)CCCl)cc5)cc4CC[C@H]3[C@@H]1CC[C@@H]2OC(=O)Cc1ccc(N(CCCl)CCCl)cc1
inactive: dose: 100.0 mg/kg/injection, schedule: Q01DX001 (sc), vehicle: steriod suspending solution 97 % of control | dose: 200.0 mg/kg/injection, schedule: Q01DX001 (sc), vehicle: steriod suspending solution 102 % of control | dose: 400.0 mg/kg/injection, schedule: Q01DX001 (sc), vehicle: steriod suspending solution 102 % of control

Cc1nc(N)[nH]c(=O)c1CCCNC(=O)CCl (tested in a mixture with another compound)
inactive: dose: 50.0 mg/kg/injection, schedule: Q01DX001 (ip), vehicle: Klucel (hydroxypropylcellulose) (HPC) 114 % of control | dose: 100.0 mg/kg/injection, schedule: Q01DX001 (ip), vehicle: Klucel (hydroxypropylcellulose) (HPC) 108 % of control | dose: 200.0 mg/kg/injection, schedule: Q01DX001 (ip), vehicle: Klucel (hydroxypropylcellulose) (HPC) 100 % of control

CNc1ncnc2nn(C)c(C#N)c12
inactive: dose: 50.0 mg/kg/injection, schedule: Q04DX002 (ip), vehicle: saline 106 % of control | dose: 100.0 mg/kg/injection, schedule: Q04DX002 (ip), vehicle: saline 95 % of control | dose: 200.0 mg/kg/injection, schedule: Q04DX002 (ip), vehicle: saline 103 % of control

CN(C)P(=O)(N(C)C)N(C)C.[Cl][Al]([Cl])[Cl]
inactive: dose: 50.0 mg/kg/injection, schedule: Q01DX009 (ip), vehicle: saline 91 % of control | [15] 88 % of control | [16] 95 % of control
